Columns and labels:
[1] = tested on: cultured human keratinocytes; assay: Keratinocyte culture: counts of total cells and basal cells after one week of dosing; format: cell-based; details: seven days, dose-dependent, Figures 2-5
Procedure: Keratinocytes were grown in culture as follows. NIH 3T3 cells were plated at 0.5 x 10⁵ cells per 35-mm tissue-culture dish, and two days later were lethally irradiated with a cobalt-60 source (5000 rads). Keratinocytes were obtained from neonatal foreskin after overnight trypsinization at 4°C and treatment with 0.02% EDTA. Keratinocytes were plated in 2 ml of serum-free medium per dish on the lethally irradiated 3T3 cells. Each experiment was performed on primary or secondary keratinocyte cultures obtained from different skin samples. The serum-free medium consisted of Dulbecco's Modified Eagle's Medium (DMEM) with high (1.8 mM) concentration of calcium (M.A. Bioproducts, Walkersville, MD) containing 7 growth factors: epidermal growth factor (25 ng/ml); hydrocortisone (203 ng/ml); insulin (5 µg/ml); prostaglandin E₁ (50 ng/ml); transferrin (5 µg/ml; prostaglandin E₁ (50 ng/ml); cholera toxin (0.1 µg/ml); (Sigma Chemical Co., St. Louis, MO); and selenous acid (2 ng/ml) (Collaborative Research, Lexington, MA). At one week in culture, hydrocortisone and cholera toxin were removed from the medium, and the dishes were washed with 0.02% EDTA to remove any remaining 3T3 cells. […]
After seven days the cultures were evaluated for their total cell content, number of basal cells, and cornified envelopes as described above. […]

[2] = tested on: cultured human keratinocytes; assay: Keratinocyte differentiation: count of cornified envelopes after one week of dosing; format: cell-based; details: dose-dependent, relative to control cultures, Figures 6 and 7
Procedure: Keratinocytes were grown in culture as follows. NIH 3T3 cells were plated at 0.5 x 10⁵ cells per 35-mm tissue-culture dish, and two days later were lethally irradiated with a cobalt-60 source (5000 rads). Keratinocytes were obtained from neonatal foreskin after overnight trypsinization at 4°C and treatment with 0.02% EDTA. Keratinocytes were plated in 2 ml of serum-free medium per dish on the lethally irradiated 3T3 cells. Each experiment was performed on primary or secondary keratinocyte cultures obtained from different skin samples. The serum-free medium consisted of Dulbecco's Modified Eagle's Medium (DMEM) with high (1.8 mM) concentration of calcium (M.A. Bioproducts, Walkersville, MD) containing 7 growth factors: epidermal growth factor (25 ng/ml); hydrocortisone (203 ng/ml); insulin (5 µg/ml); prostaglandin E₁ (50 ng/ml); transferrin (5 µg/ml; prostaglandin E₁ (50 ng/ml); cholera toxin (0.1 µg/ml); (Sigma Chemical Co., St. Louis, MO); and selenous acid (2 ng/ml) (Collaborative Research, Lexington, MA). At one week in culture, hydrocortisone and cholera toxin were removed from the medium, and the dishes were washed with 0.02% EDTA to remove any remaining 3T3 cells.
In addition, 1,25-(OH)₂D₃ was tested, alone and in combination with PTH (7-34), and PTH (1-34) and PTH (7-34) were tested together. […]

[3] = tested on: canine adenylate cyclase system; details: cited from earlier work

Compound	total number of cells and the number of basal cells in the cultures [1]	total number of cornified envelopes (percent of control) [2]	activity relative to bovine PTH (1-34) ([3]; more active than bovine PTH (1-34))	activity relative to human PTH (1-34) ([3]; more active than human PTH (1-34))
C=C1/C(=C\C=C2/CCC[C@]3(C)[C@@H]([C@H](C)CCCC(C)(C)O)CC[C@@H]23)C[C@@H](O)C[C@@H]1O [1,25(OH)₂D₃, 1,25-dihydroxyvitamin D₃]	in a dose-dependent manner decreased	increased, in a dose-dependent manner	–	–
Rat PTH (1-34): rat PTH 1-34 fragment, 5 amino acid sequence difference from the 1-34 region of human and bovine PTH	–	–	2-4 fold	8-10 fold

Reference: patent EP0415924B1, “REGULATION OF CELL PROLIFERATION AND DIFFERENTIATION USING PEPTIDES” (HOLICK, Michael F, priority 1987, dated 1996)
